Source: paper PMC5910208 (ACS chemical biology, 2018)

Legend:
LaPhzM = biological target: T1, LaPhzM (Lysobacter antibioticus, UniProt A0A172J1V3); test: X-ray crystal structure, […] Å; assay type: binding; conditions: crystallised with SAM added; SAH found in cofactor site
T1 sequence (A0A172J1V3 1-341): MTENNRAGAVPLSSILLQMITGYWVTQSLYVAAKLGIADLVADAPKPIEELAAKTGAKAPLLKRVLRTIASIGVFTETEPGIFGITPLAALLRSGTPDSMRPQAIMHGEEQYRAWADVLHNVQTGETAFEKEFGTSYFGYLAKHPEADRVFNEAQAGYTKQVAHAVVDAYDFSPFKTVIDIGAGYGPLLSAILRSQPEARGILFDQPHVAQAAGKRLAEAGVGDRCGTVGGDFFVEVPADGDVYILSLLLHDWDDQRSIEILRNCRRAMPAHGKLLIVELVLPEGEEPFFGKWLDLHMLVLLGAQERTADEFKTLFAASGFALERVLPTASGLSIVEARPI

LaPhzNO1 = biological target: T2, LaPhzNO1 (Lysobacter antibioticus, UniProt A0A172J1R7); test: HPLC / LC-MS product analysis, coupled with LaPhzS making DHP from PDC; assay type: biochemical; conditions: NADPH, FAD; phosphate 100 mM pH 7.0, RT
T2 sequence (A0A172J1R7 1-541): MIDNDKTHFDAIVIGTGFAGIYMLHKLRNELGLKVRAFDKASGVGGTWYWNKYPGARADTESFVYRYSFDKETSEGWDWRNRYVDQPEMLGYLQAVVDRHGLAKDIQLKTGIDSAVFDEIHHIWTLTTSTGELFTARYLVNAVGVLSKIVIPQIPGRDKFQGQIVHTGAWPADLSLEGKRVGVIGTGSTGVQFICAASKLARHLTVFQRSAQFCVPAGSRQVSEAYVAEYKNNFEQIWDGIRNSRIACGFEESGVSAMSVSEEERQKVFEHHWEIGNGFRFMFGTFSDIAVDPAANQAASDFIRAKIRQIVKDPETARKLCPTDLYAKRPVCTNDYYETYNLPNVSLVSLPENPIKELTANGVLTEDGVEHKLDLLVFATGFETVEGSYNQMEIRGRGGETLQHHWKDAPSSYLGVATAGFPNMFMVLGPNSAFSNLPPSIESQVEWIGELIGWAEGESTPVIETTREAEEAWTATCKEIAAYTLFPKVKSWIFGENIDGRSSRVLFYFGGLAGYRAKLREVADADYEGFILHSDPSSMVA

[1] = substrate: COc1cccc2c1nc1cccc(O)c1[n+]2[O-]; test: initial velocity by HPLC of SAH formed, Michaelis-Menten fit; assay type: biochemical, Lysobacter antibioticus; conditions: co-substrate SAM, Tris 50 mM, pH 7.8, RT

Nc1ncnc2c1ncn2[C@@H]1O[C@H](CSCC[C@H](N)C(=O)O)[C@@H](O)[C@H]1O [S-adenosyl-L-homocysteine]
X-ray crystal structure, 1.42 Å (LaPhzM): electron density around the cofactor binding site clearly indicates an S-adenosyl-L-homocysteine (SAH), instead of a SAM

Oc1cccc2nc3c(O)cccc3nc12 [compound 7, 1,6-dihydroxyphenazine]
HPLC / LC-MS product analysis, coupled with LaPhzS making DHP from PDC (LaPhzNO1): When the second enzyme LaPhzNO1 and another cofactor NADPH were added in the reaction mixture

B1: LaPhzM (Lysobacter antibioticus) (protein)
chain: T1 sequence (A0A172J1V3 1-341)
Km [1]: 33.6 µM
kcat [1]: 0.01 s⁻¹
